According to patent US20090325959A1 (priority 2008, published 2009):
Like-named read-outs stand apart in the source and are kept apart here.

How the values were obtained:
ROCK2 = target: T1, ROCK2 (Homo sapiens, UniProt O75116); assay: Rho kinase inhibition assay (IMAP fluorescence polarization), ROCK2; type: biochemical;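 further: kinase reaction started with 10 µM ATP and run 60 min at room temperature, then phosphorylated substrate captured on IMAP beads for 30 min and fluorescence polarization read in mP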
T1 construct: purchased Upstate/Chemicon 14-451
T1 sequence (O75116 11-552 limits assumed): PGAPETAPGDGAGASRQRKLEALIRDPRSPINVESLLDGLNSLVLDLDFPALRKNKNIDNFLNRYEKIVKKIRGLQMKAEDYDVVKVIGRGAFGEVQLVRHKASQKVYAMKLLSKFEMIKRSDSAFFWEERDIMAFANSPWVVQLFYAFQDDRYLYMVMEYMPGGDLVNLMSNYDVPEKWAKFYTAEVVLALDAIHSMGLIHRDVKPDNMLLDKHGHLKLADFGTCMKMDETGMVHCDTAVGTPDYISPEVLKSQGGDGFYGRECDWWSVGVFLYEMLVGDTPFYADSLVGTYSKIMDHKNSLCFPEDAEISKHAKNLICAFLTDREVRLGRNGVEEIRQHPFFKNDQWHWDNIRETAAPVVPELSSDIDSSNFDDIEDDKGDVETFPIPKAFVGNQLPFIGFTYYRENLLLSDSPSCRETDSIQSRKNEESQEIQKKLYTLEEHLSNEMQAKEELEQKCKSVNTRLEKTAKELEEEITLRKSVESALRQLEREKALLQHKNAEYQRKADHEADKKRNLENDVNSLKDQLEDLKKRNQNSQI
Description: (§1) Following the pre-incubation, 10 μM ATP was added to initiate the reaction. After 60 minutes at room temperature, Molecular Devices IMAP™ binding solution was added to bind phosphorylated substrate. After 30 minutes of incubation in the presence of the IMAP™ beads, the fluorescence polarization was read and the ratio was reported as mP. IC50 values for compounds and EC50 values for ATP were calculated using the Prism software from Graphpad.

ROCK1 = target: T2, ROCK1 (Homo sapiens, UniProt Q13464); assay: Rho kinase inhibition assay (IMAP fluorescence polarization), ROCK1; type: biochemical;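 further: kinase reaction run 60 min at room temperature, then phosphorylated substrate captured on IMAP beads for 30 min, with fluorescence polarization read in mP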
T2 construct: purchased Upstate/Chemicon 14-601
T2 sequence (Q13464 17-535 limits assumed): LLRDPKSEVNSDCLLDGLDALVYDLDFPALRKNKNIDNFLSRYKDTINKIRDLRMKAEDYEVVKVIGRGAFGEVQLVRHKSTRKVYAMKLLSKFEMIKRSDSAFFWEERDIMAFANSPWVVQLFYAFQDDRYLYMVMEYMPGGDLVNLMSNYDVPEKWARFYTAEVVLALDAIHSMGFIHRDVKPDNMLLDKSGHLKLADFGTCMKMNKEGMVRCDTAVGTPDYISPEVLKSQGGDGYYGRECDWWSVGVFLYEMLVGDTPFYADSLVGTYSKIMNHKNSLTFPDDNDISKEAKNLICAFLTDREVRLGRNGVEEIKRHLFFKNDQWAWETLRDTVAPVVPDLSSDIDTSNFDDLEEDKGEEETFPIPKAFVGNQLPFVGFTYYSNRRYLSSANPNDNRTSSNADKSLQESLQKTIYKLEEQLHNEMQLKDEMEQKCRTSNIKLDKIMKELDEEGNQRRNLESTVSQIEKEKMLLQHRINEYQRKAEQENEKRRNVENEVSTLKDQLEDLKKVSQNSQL
Description: as §1

[1] = 10 μM ATP, read-out: ROCK2 Ki, Avg

SMILES | Ki (ROCK2; [1]) [nM] | Ki (ROCK1; Avg, 10 μM ATP) [nM] | Ki (ROCK2; average Ki, read-out: ROCK2 Ki) [nM] | Ki (ROCK1; average Ki) [nM]
O=C(O)COc1cccc(CN2CC[C@@H](Nc3cccc4cnccc34)C2)c1 [Compound 2.044, (R)-2-(3-((3-(isoquinolin-5-ylamino)pyrrolidin-1-yl)methyl)phenoxy)acetic acid] | 24.1 | 81.4 | – | –
[O-][n+]1ccc2c(N[C@@H]3CCN(Cc4cccc(OCCO)c4)C3)cccc2c1 [Compound 2.081, (R)-5-(1-(3-(2-hydroxyethoxy)benzyl)pyrrolidin-3-ylamino)isoquinoline 2-oxide] | 1110 | 1450 | – | –
FC(F)(F)c1cccc(CN2CCC[C@@H](Nc3ccc4[nH]ncc4c3)C2)c1 [Compound 1.190, (R)-N-(1-(3-(trifluoromethyl)benzyl)piperidin-3-yl)-1H-indazol-5-amine] | 71.8 | 326 | – | –
c1cc(N2CCCC2)ccc1CN1CCC[C@@H](Nc2ccc3[nH]ncc3c2)C1 [Compound 1.248, (R)-N-(1-(4-(pyrrolidin-1-yl)benzyl)piperidin-3-yl)-1H-indazol-5-amine] | 891 | 2350 | – | –
c1cc(N[C@@H]2CCN(Cc3cncnc3)C2)c2ccncc2c1 [Compound 2.084, (R)-N-(1-(pyrimidin-5-ylmethyl)pyrrolidin-3-yl)isoquinolin-5-amine] | 350 | 1170 | – | –
O=C(O)COc1cccc(CN2CCC[C@@H](Nc3ccc4[nH]ncc4c3)C2)c1 [Compound 1.125, (R)-2-(3-((3-(1H-indazol-5-ylamino)piperidin-1-yl)methyl)phenoxy)acetic acid] | 50.9 | 557 | – | –
O=C(COc1cccc(CN2CC[C@@H](Nc3cccc4cnccc34)C2)c1)N1CCOCC1 [Compound 2.043, (R)-2-(3-((3-(isoquinolin-5-ylamino)pyrrolidin-1-yl)methyl)phenoxy)-1-morpholinoethanone] | 21.5 | 49.4 | – | –
CC(=O)NCc1cccc(CN2CC[C@@H](Nc3cccc4cnccc34)C2)c1 [Compound 2.063, (R)-N-(3-((3-(isoquinolin-5-ylamino)pyrrolidin-1-yl)methyl)benzyl)acetamide] | 73.9 | 206 | – | –
c1cc2c(cc1CN1CCC[C@@H](Nc3ccc4[nH]ncc4c3)C1)OCCO2 [Compound 1.177, (R)-N-(1-((2,3-dihydrobenzo[b][1,4]dioxin-6-yl)methyl)piperidin-3-yl)-1H-indazol-5-amine] | 18.2 | 156 | – | –
c1cc(CN2CC[C@@H](Nc3cccc4cnccc34)C2)cc(C2CC2)c1 [Compound 2.020, (R)-N-(1-(3-cyclopropylbenzyl)pyrrolidin-3-yl)isoquinolin-5-amine] | 36.5 | 101 | – | –
CCOC(=O)c1ccc(CN2CCC[C@@H](Nc3ccc4[nH]ncc4c3)C2)cc1 [Compound 1.209, (R)-ethyl 4-((3-(1H-indazol-5-ylamino)piperidin-1-yl)methyl)benzoate] | 470 | 4590 | – | –
c1cc(CN2CCC[C@@H](Nc3ccc4[nH]ncc4c3)C2)cc(-c2ccco2)c1 [Compound 1.250, (R)-N-(1-(3-(furan-2-yl)benzyl)piperidin-3-yl)-1H-indazol-5-amine] | 45.8 | 247 | – | –
Cc1ccc(CN2CC[C@@H](Nc3cccc4c[n+]([O-])ccc34)C2)cc1OCCO [Compound 2.080, (R)-5-(1-(3-(2-hydroxyethoxy)-4-methylbenzyl)pyrrolidin-3-ylamino)isoquinoline 2-oxide] | 126 | 214 | – | –
NS(=O)(=O)c1ccc2nc(CN3CC[C@@H](Nc4cccc5cnccc45)C3)[nH]c2c1 [Compound 2.087, (R)-2-((3-(isoquinolin-5-ylamino)pyrrolidin-1-yl)methyl)-1H-benzo[d]imidazole-6-sulfonamide] | 59.3 | 896 | – | –
CN(c1cccc(CN2CCC[C@@H](Nc3ccc4[nH]ncc4c3)C2)c1)S(C)(=O)=O [Compound 1.207, (R)-N-(3-((3-(1H-indazol-5-ylamino)piperidin-1-yl)methyl)phenyl)-N-methylmethanesulfonamide] | 43.7 | 516 | – | –
O=C(O)COc1cccc(CN2CCC[C@H](Nc3ccc4[nH]ncc4c3)C2)c1 [Compound 1.196, (S)-2-(3-((3-(1H-indazol-5-ylamino)piperidin-1-yl)methyl)phenoxy)acetic acid] | 39.8 | 711 | – | –
Brc1cccc(CN2CCC[C@@H](Nc3ccc4[nH]ncc4c3)C2)c1 [Compound 1.210, (R)-N-(1-(3-bromobenzyl)piperidin-3-yl)-1H-indazol-5-amine] | 25.5 | 95.1 | – | –
NCc1cccc(CN2CCC[C@@H](Nc3ccc4[nH]ncc4c3)C2)c1 [Compound 1.235, (R)-N-(1-(3-(aminomethyl)benzyl)piperidin-3-yl)-1H-indazol-5-amine] | 335 | 1390 | – | –
Clc1ccc(CN2CC[C@@H](Nc3cccc4cnccc34)C2)cc1Cl [Compound 2.048, (R)-N-(1-(3,4-dichlorobenzyl)pyrrolidin-3-yl)isoquinolin-5-amine] | 34.6 | 71.5 | – | –
Cc1nc(CN2CCC[C@H](Nc3ccc4[nH]ncc4c3)C2)c(C)o1 [Compound 1.279, (S)-N-(1-((2,5-dimethyloxazol-4-yl)methyl)piperidin-3-yl)-1H-indazol-5-amine] | 34.2 | 456 | – | –
c1ccc(Cn2cc(CN3CCC[C@@H](Nc4ccc5[nH]ncc5c4)C3)c3ccccc32)cc1 [Compound 1.271, (R)-N-(11-((1-benzyl-1H-indol-3-yl)methyl)piperidin-3-yl)-1H-indazol-5-amine] | 77.7 | 332 | – | –
CCSc1ccc(CN2CCC[C@H](Nc3ccc4[nH]ncc4c3)C2)cc1 [Compound 1.168, (S)-N-(1-(4-(ethylthio)benzyl)piperidin-3-yl)-1H-indazol-5-amine] | 22.9 | 162 | – | –
OCCCOc1cccc(CN2CCC[C@H](Nc3ccc4[nH]ncc4c3)C2)c1 [Compound 1.230, (S)-3-(3-((3-(1H-indazol-5-ylamino)piperidin-1-yl)methyl)phenoxy)propan-1-ol] | 35.3 | 346 | – | –
COc1ccc(CN2CC[C@@H](Nc3cccc4cnccc34)C2)cc1OCCO [Compound 2.067, (R)-2-(5-((3-(isoquinolin-5-ylamino)pyrrolidin-1-yl)methyl)-2-methoxyphenoxy)ethanol] | 4.2 | 19.6 | 4.2 | 19.6
CC1(C)OC[C@H](COc2cccc(CN3CCC[C@H](Nc4ccc5[nH]ncc5c4)C3)c2)O1 [Compound 1.214, N-((S)-1-(3-(((S)-2,2-dimethyl-1,3-dioxolan-4-yl)methoxy)benzyl)piperidin-3-yl)-1H-indazol-5-amine] | 143 | 546 | – | –
O=c1[nH]ccc2c(N[C@@H]3CCN(Cc4cccc(OCCO)c4)C3)cccc12 [Compound 2.092, (R)-5-(1-(3-(2-hydroxyethoxy)benzyl)pyrrolidin-3-ylamino)isoquinolin-1(2H)-one] | 458 | 1130 | – | –
CC(CN1CCC[C@@H](Nc2ccc3[nH]ncc3c2)C1)c1ccccc1 (stereo partly drawn) [Compound 1.251, N-((3R)-1-(2-phenylpropyl)piperidin-3-yl)-1H-indazol-5-amine] | 49.2 | 207 | – | –
